Data from paper PMC7377361, “Pressurized DNA state inside herpes capsids—A novel antiviral target” (PLoS Pathogens, 2020).
Where no end group is shown, it is not given here.

What was measured:
[1] = tested on: NPC; test: Nuclear import assay (GST-NLS-EGFP) in isolated rat liver nuclei; format: biochemical; settings: cytosol and ATP regeneration system, 37 °C
Protocol: This was verified with a fluorescently labeled nuclear localization signal (NLS), added to purified rat liver nuclei incubated with cytosolic extracts (as a source of soluble import factors) supplemented with an ATP regeneration system, see Supporting Materials for experimental description and S4A Fig. These controls were also reproduced with a digitonin-permeabilized cell assay, which accurately recapitulates capsid-nucleus binding and nuclear import in living cells; see Supporting Materials and data shown in S4B Fig. In agreement with observations in the isolated nuclei system (Fig 3B), we also confirmed via a digitonin-permeabilized cell assay that none of the three compounds interfered with capsid-NPC binding in cells. Attachment of GFP-capsids to nuclei was visualized with SR-SIM (S4C Fig). The addition of WGA prevented capsid binding, showing capsid-NPC binding specificity (S4C Fig).
Rat liver cell nuclei were incubated with GST-NLS-EGFP at 37 °C for 40 min in CBB buffer containing: (i) rat liver cell cytosol, (ii) 1 mg/mL BSA, and (iii) ATP regeneration system. The complete binding mixture was loaded onto coverslips and processed for fluorescence imaging as described above. When indicated, nuclei were preincubated with the polyvalent cationic agents at the concentrations described above for 2 h before performing import assays. […]

[2] = tested on: HSV-1 C-capsids; test: Reconstituted nuclei-capsid MOA-assay, ultrathin-sectioning EM of DNA ejection; format: biochemical; settings: 37°C, 40 min; DAB-Am-4 58.5 μM, bPEI 600 39 μM, Arg^5+ 25 μM (N/P 1.5)
Protocol: Once the integrity and functionality of the reconstituted nuclei-capsid system for MOA testing was established, we applied a stringent test of the antiviral activity of each compound. We used ultrathin-sectioning EM to visualize DNA injection from HSV-1 capsids into isolated nuclei with DAB-Am-4 (58.5 μM), bPEI 600 (39 μM), and Arg^5+(25 μM). Compound concentrations corresponded to an N/P ratio of 1.5 (scaled proportionally to virus concentration, as described above) (Fig 4). Purified DNA-filled C-capsids were incubated with isolated rat liver nuclei in the presence of cell cytosol supplemented with ATP regeneration system for 40 min at 37°C, providing optimum conditions, found to maximize capsid binding to NPCs with subsequent DNA ejection. […] Only capsids that appeared bound to the nuclear membrane are included in the statistics (more than 790 nuclei-bound capsids and over 140 nuclei were counted for each sample analysis, providing good statistics). [Note that micrographs shown in Raw 1 of Fig 4 are lower magnification images (13,500X) which show an area around a nuclear membrane with empty and DNA-filled capsids. For our analysis of capsids bound to NPCs, we only used higher magnification images (25,000X) shown in Raw 2, to identify capsids that were associated with visible NPCs. A larger collection of these EM-micrographs at magnification 25,000X with and without different compounds added is shown in a supporting raw data file (S5 Fig).]
We built an in vitro viral HSV-1 DNA translocation system in which the HSV-1 genome was released into nucleoplasm in a homogenate solution mimicking the cytoplasm environment; see details in previously described protocol in ref.[41]. In a typical system, rat liver cell nuclei were incubated with C-capsids (HSV-1 or GFP-labeled HSV-1) in solution containing: (i) cytosol, (ii) BSA, (iii) ATP regeneration system; see details in ref.[41]. The system was incubated at 37°C for 40 min, sufficient for capsid binding to nuclei. For inhibition studies, wheat germ agglutinin (WGA) was preincubated with the nuclei prior to addition of C-capsids. For compound-induced inhibition of DNA ejection studies, C-capsids were preincubated with the polyvalent cationic agents at the concentrations described in the main text before adding capsids to nuclei.
After incubation of nuclei with C-capsids, the samples were washed once with CBB buffer (1,000 rpm for 10 min in a microcentrifuge). The supernatant was then removed and replaced with a fixative (2.5% EM-grade glutaraldehyde and 2.0% EM-grade formaldehyde in 0.1 M sodium cacodylate buffer, pH 7.4) for 3 hours at 4 °C. The fixative was then removed, replaced briefly with buffer, and then replaced with 1% osmium tetroxide in buffer for 90 minutes. Each sample was then subjected to 10-minute buffer rinse, after which it was placed in 1% aqueous uranyl acetate and left overnight. The next day, each sample was dehydrated via a graded ethanol series, culminating in propylene oxide. Following a graded propylene oxide; Epon812 series, the nuclear pellets were embedded in Epon812 prior to cutting. Ultrathin (ca. 90 nm) Epon sections on grids were stained with 1% aqueous uranyl acetate and lead citrate. After the grids dried, areas of interest were imaged at 120 kV, spot 3 using a Tietz 2kx2k camera mounted on a Philips/FEI (now Thermo Fisher FEI) CM200 transmission electron microscope.

Compound	nuclear import of GST-NLS-GFP protein [1]	Capsids bound to NPC: DNA-filled capsids [2] [%]	Capsids bound to NPC: DNA-filled capsids (count) [2]	Capsids bound to NPC: Empty capsids [2] [%]	Capsids bound to NPC: Empty capsids (count) [2]
RRRRR [Arg^5+]	not blocked	50	399	50	398
NCCCN(CCCN)CCCCN(CCCN)CCCN [DAB-Am-4]	not blocked	60	479	40	313
